Assay results from US9695193B2, “Inhibitors of Plasmodium falciparum equilibrative nucleoside transporter type I as anti-parasitic compounds” (The Trustees of Columbia University in the City of New York, priority 2013, dated 2017).

Target: T1, PfENT1 (Plasmodium falciparum, UniProt Q8IDM6)
T1 construct: expressed in transfected cells; host or cells: fui1Δ yeast (Saccharomyces cerevisiae), co-expressing GFP
Assay type: cell-based
Conditions: primary HTS, compounds at 10 μM, 125 μM 5-FUrd
In short: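 fui1Δ yeast expressing PfENT1 and GFP were grown with 125 μM 5-fluorouridine, so growth reflects blocked 5-FUrd uptake. Compounds were screened at 10 μM. Growth scored by OD620 turbidity and GFP fluorescence, and hits had to be positive on both.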

T1 sequence (Q8IDM6 whole entry): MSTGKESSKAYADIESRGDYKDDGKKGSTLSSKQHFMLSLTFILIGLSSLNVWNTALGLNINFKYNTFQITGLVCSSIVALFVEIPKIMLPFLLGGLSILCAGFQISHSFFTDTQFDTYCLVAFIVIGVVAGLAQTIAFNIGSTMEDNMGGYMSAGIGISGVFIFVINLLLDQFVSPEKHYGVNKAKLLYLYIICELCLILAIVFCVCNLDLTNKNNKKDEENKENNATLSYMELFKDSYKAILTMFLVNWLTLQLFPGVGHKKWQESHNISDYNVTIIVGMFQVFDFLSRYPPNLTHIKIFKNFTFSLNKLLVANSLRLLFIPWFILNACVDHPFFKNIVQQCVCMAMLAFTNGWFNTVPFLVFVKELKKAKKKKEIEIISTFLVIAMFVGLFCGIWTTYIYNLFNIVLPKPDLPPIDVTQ

Row | SMILES | Avg Normalized % maximal activity [%]
1 | CCC(=O)Nc1cccc(-c2nnc(-c3ccccc3C)o2)c1 [compound 114, N-{3-[5-(2-methylphenyl)-1,3,4-oxadiazol-2-yl]phenyl} propanamide] | 4.37
2 | Cc1ccc(NC(=O)CSc2nccn2C)cc1C [compound 115, N-(3,4-dimethylphenyl)-2-[(1-methyl-1H-imidazol-2-yl)thio]acetamide] | 4.36
3 | O=C(Nc1cccc(NC(=O)c2cccs2)c1)c1cc2ccccc2o1 [compound 116, N-{3-[(2-thienylcarbonyl)amino]phenyl)-1-benzofuran-2-carboxamide] | 4.34
4 | COc1cc(NC(=O)CSc2nccc(C)n2)c(OC)cc1Cl [compound 117, N-(4-chloro-2,5-dimethoxyphenyl)-2-[(4-methyl-2-pyrimidinyl)thio]acetamide] | 4.28
5 | Nc1nc(N)n(-c2ccccc2)n1 [compound 118, 1-phenyl-1H-1,2,4-triazole-3,5-diamine] | 4.28
6 | COCc1cc(C)nc2sc(C(=O)Nc3ccc(C(=O)OC)cc3)c(N)c12 [compound 119, methyl 4-({[3-amino-4-(methoxymethyl)-6-methylthieno[2,3-b]pyridin-2-yl]carbonyl}amino)benzoate] | 4.25
7 | CC(=O)[C@H]1CC[C@H]2[C@@H]3C[C@H](C)C4=CC(=O)CC[C@]4(C)[C@H]3[C@@H](O)C[C@]12C [compound 121] | 4.13
8 | COc1c(C)cccc1C(=O)Nc1cc(-c2nc3ncccc3o2)ccc1C [compound 122, 2-methoxy-3-methyl-N-(2-methyl-5-[1,3]oxazolo[4,5-b]pyridin-2-ylphenyl)benzamide] | 4.13
9 | CC(C)c1nnc(NC(=O)c2cccc(I)c2)s1 [compound 123, 3-iodo-N-(5-isopropyl-1,3,4-thiadiazol-2-yl)benzamide] | 4.10
10 | COc1ccc(OC)c(NC(=O)N2CCN(c3cc(Cl)ccc3C)CC2)c1 [compound 124, 4-(5-chloro-2-methylphenyl)-N-(2,5-dimethoxyphenyl)-1-piperazine-carboxamide] | 3.95
11 | CCSc1nnc(NC(=O)c2cc(Br)ccc2Cl)s1 [compound 125, 5-bromo-2-chloro-N-[5-(ethylthio)-1,3,4-thiadiazol-2-yl]benzamide] | 3.89
12 | COc1ccc(NC(=O)C2(c3ccccc3)CCCC2)cc1 [compound 126, N-(4-methoxyphenyl)-1-phenylcyclopentane-carboxamide] | 3.87
13 | COc1c(C)c2c(c(O)c1C/C=C(\C)CCC(=O)OCCN1CCOCC1)C(=O)OC2 [compound 127] | 3.85
14 | COc1ccc(/C=C/c2nc(C#N)c(N3CCCCC3)o2)cc1OC [compound 128, 2-[2-(3,4-dimethoxyphenyl)vinyl]-5-(1-piperidinyl)-1,3-oxazole-4-carbonitrile] | 3.74
15 | CC(C)[C@@H]1CC[C@@H](C)CC1=O [compound 129] | 3.73
16 | O=C(C1CCCCC1)N1CCN(c2ccccn2)CC1 [compound 130, 1-(cyclohexylcarbonyl)-4-(2-pyridinyl)piperazine] | 3.69
17 | CC[S+](CC)c1c([O-])[nH]c(=O)n(Cc2ccc(F)cc2)c1=O [compound 131, 5-(diethylsulfonio)-1-(4-fluorobenzyl)-2,6-dioxo-1,2,3,6-tetrahydro-4-pyrimidinolate] | 3.65
18 | O=C(Nc1ccc(-c2nnc(-c3ccccc3)o2)cc1)c1ccccc1Cl [compound 132] | 3.60
19 | COc1ccc(C2CC(c3ccccc3C)n3nc(N)nc3N2)cc1 (centres unmarked) [compound 133, 5-(4-methoxyphenyl)-7-(2-methylphenyl)-4,5,6,7-tetrahydro[1,2,4] triazolo[1,5-a]pyrimidin-2-amine] | 3.57
20 | Cc1cc(=O)oc2cc(OCc3ccc4c(c3)OCO4)ccc12 [compound 134, 7-(1,3-benzodioxol-5-ylmethoxy)-4-methyl-2H-chromen-2-one] | 3.56
21 | C[N+]1(C)C2CC(OC(=O)[C@H](CO)c3ccccc3)CC1C1OC12 (some centres unmarked) [compound 135] | 3.47
22 | Cc1ccc2n1CCN(C(=O)c1ccc(S(=O)(=O)N(C)C)cc1)C2C (centres unmarked) [compound 136] | 3.43

Row | SMILES | Avg Normalized % maximal activity [%]
23 | O=C(Nc1cccc(NC(=O)c2cccs2)c1)c1ccc(Br)o1 [compound 137, 5-bromo-N-{3-[(2-thienylcarbonyl)amino]phenyl}-2-furamide] | 3.37
24 | COc1cc(C(=O)Nc2ccc(C(=O)c3cccs3)cc2)cc(OC)c1OC [compound 138, 3,4,5-trimethoxy-N-[4-(2-thienylcarbonyl)phenyl]benzamide] | 3.31
25 | Cc1cc(C)nc(NC(=O)c2cc3c(s2)CCCC3)n1 [compound 139, N-(4,6-dimethyl-2-pyrimidinyl)-4,5,6,7-tetrahydro-1-benzothiophene-2-carboxamide] | 3.27
26 | CCOc1ccc2c(C)cc(=O)oc2c1C [compound 140, 7-ethoxy-4,8-dimethyl-2H-chromen-2-one] | 3.21
27 | Cc1cc(-c2ccccc2)nc(SCc2nc3ccccc3c(=O)[nH]2)n1 [compound 141, 2-{[(4-methyl-6-phenyl-2-pyrimidinyl)thio]methyl}-4(3H)-quinazolinone] | 3.21
28 | COc1ccc(-c2nnc(SCc3csc(C)n3)o2)cc1OC [compound 142, 2-(3,4-dimethoxyphenyl)-5-{[(2-methyl-1,3-thiazol-4-yl)methyl]thio}-1,3,4-oxadiazole] | 3.09
29 | CC(=O)c1ccc(NC(=O)CSc2nnc3c4ccccc4n(C)c3n2)cc1 [compound 143, N-(4-acetylphenyl)-2-[(5-methyl-5H-[1,2,4]triazino [5,6-b]indol-3-yl)thio]acetamide] | 3.07
30 | Cc1cc2nc(Nc3nc(=O)c(C)c(C)[nH]3)nc(C)c2cc1C [compound 144, 5,6-dimethyl-2-[(4,6,7-trimethyl-2-quinazolinyl)amino]-4(1H)-pyrimidinone] | 3.04
31 | O=C(Nc1cccc(-c2nc3ncccc3o2)c1)c1ccc2c(c1)OCCO2 [compound 145, N-(3-[1,3]oxazolo[4,5-b]pyridin-2-ylphenyl)-2,3-dihydro-1,4-benzodioxine-6-carboxamide] | 3.02
32 | Br.Cc1ccnc(Nc2nc(-c3cccnc3)cs2)c1 [compound 146, 4-methyl-N-[4-(3-pyridinyl)-1,3-thiazol-2-yl]-2-pyridinamine hydrobromide] | 2.97
33 | CC(=O)c1ccc(NC(=O)CSc2nc3cc(C)ccc3[nH]2)cc1 [compound 147, N-(4-acetylphenyl)-2-[(5-methyl-1H-benzimidazol-2-yl)thio]acetamide] | 2.77
34 | O=C(Nc1sc2c(c1CNC1CCCCC1)CCCC2)c1ccccc1 [compound 148, N-{3-[(cyclohexylamino)methyl]-4,5,6,7-tetrahydro-1-benzothien-2-yl} benzamide] | 2.74
35 | Cc1ccc(C(=O)c2cccc(NC(=O)c3cccs3)c2)cc1C [compound 149, N-[3-(3,4-dimethylbenzoyl)phenyl]-2-thiophene-carboxamide] | 2.71
36 | Cn1c(=O)oc2cc(S(=O)(=O)Nc3ccccc3Br)ccc21 [compound 150, N-(2-bromophenyl)-3-methyl-2-oxo-2,3-dihydro-1,3-benzoxazole-6-sulfonamide] | 2.62
37 | O=C(O)c1ccc(S(=O)(=O)N(Cl)Cl)cc1 [compound 151] | 2.60
38 | COc1ccc(Cl)cc1C(=O)Nc1cc(C)ccn1 [compound 152, 5-chloro-2-methoxy-N-(4-methyl-2-pyridinyl)benzamide] | 2.56
39 | CN(C(=O)c1cc2c(=O)n3ccccc3nc2n1C)C1CCCCC1 [compound 153, N-cyclohexyl-N,1-dimethyl-4-oxo-1,4-dihydropyrido [1,2-a]pyrrolo[2,3-d] pyrimidine-2-carboxamide] | 2.37
40 | COc1ccc(NC(=O)C2CCN(C(=O)c3ccc(F)cc3)CC2)c(OC)c1 [compound 154, N-(2,4-dimethoxyphenyl)-1-(4-fluorobenzoyl)-4-piperidinecarboxamide] | 2.30
41 | CN1CCN(S(=O)(=O)c2ccc(C(=O)Nc3ccccc3)cc2)CC1 [compound 155, 4-[(4-methyl-1-piperazinyl)sulfonyl]-N-phenylbenzamide] | 2.20
42 | CCCCC(=O)Nc1ccc(NC(=O)c2cccs2)cc1OC [compound 156, N-[3-methoxy-4-(pentanoylamino)phenyl]-2-thiophenecarboxamide] | 2.17
43 | Cc1ccc(NC(=O)CSc2nc3cccnc3[nH]2)c(C)c1 [compound 157, N-(2,4-dimethylphenyl)-2-(3H-imidazo[4,5-b]pyridin-2-ylthio)acetamide] | 2.12
44 | COc1ccccc1C(=O)Nc1nnc(COc2ccc(C)cc2)s1 [compound 158, 2-methoxy-N-{5-[(4-methylphenoxy)methyl]-1,3,4-thiadiazol-2-yl}benzamide] | 2.12
